Assay results reported in the NIST ThermoML archive (doi:10.1016/j.jct.2016.08.008).
Numbers after ± are expanded uncertainties.

test: activity coefficient (dimensionless); of the first substance listed, at infinite dilution; xn = mol fraction of the nth substance listed; conditions: 358.15 K; 101.33 kPa; Liquid; Chromatography; x1 = 0

| Compound | activity coefficient |
| --- | --- |
| CCC(C)(C)OC [2-methoxy-2-methylbutane] + CCCCCCCCCCCCn1cc[n+](C)c1.O=S(=O)([N-]S(=O)(=O)C(F)(F)F)C(F)(F)F | 1.35 ± 0.09 |
| COC(C)(C)C [2-methoxy-2-methylpropane] + CCCCCCCCCCCCn1cc[n+](C)c1.O=S(=O)([N-]S(=O)(=O)C(F)(F)F)C(F)(F)F | 1.14 ± 0.07 |
| CC(C)CO [2-methyl-1-propanol] + CCCCCCCCCCCCn1cc[n+](C)c1.O=S(=O)([N-]S(=O)(=O)C(F)(F)F)C(F)(F)F | 1.19 ± 0.08 |
| CC(C)(C)O [2-methylpropan-2-ol] + CCCCCCCCCCCCn1cc[n+](C)c1.O=S(=O)([N-]S(=O)(=O)C(F)(F)F)C(F)(F)F | 0.964 ± 0.061 |
| CCC(C)CC [3-methylpentane] + CCCCCCCCCCCCn1cc[n+](C)c1.O=S(=O)([N-]S(=O)(=O)C(F)(F)F)C(F)(F)F | 2.99 ± 0.2 |
| C=C(C)c1ccccc1 [(1-methylethenyl)benzene] + CCCCCCCCCCCCn1cc[n+](C)c1.O=S(=O)([N-]S(=O)(=O)C(F)(F)F)C(F)(F)F | 1 ± 0.06 |
| CC(C)=O [acetone] + CCCCCCCCCCCCn1cc[n+](C)c1.O=S(=O)([N-]S(=O)(=O)C(F)(F)F)C(F)(F)F | 0.417 ± 0.035 |
| CC#N [acetonitrile] + CCCCCCCCCCCCn1cc[n+](C)c1.O=S(=O)([N-]S(=O)(=O)C(F)(F)F)C(F)(F)F | 0.539 ± 0.039 |
| c1ccccc1 [benzene] + CCCCCCCCCCCCn1cc[n+](C)c1.O=S(=O)([N-]S(=O)(=O)C(F)(F)F)C(F)(F)F | 0.669 ± 0.045 |
| CCCCO [butan-1-ol] + CCCCCCCCCCCCn1cc[n+](C)c1.O=S(=O)([N-]S(=O)(=O)C(F)(F)F)C(F)(F)F | 1.24 ± 0.08 |
| CCC(C)O (configuration not stated) [butan-2-ol] + CCCCCCCCCCCCn1cc[n+](C)c1.O=S(=O)([N-]S(=O)(=O)C(F)(F)F)C(F)(F)F | 1.09 ± 0.07 |
| CCCC=O [butanal] + CCCCCCCCCCCCn1cc[n+](C)c1.O=S(=O)([N-]S(=O)(=O)C(F)(F)F)C(F)(F)F | 0.554 ± 0.04 |
| C1CCCCCC1 [cycloheptane] + CCCCCCCCCCCCn1cc[n+](C)c1.O=S(=O)([N-]S(=O)(=O)C(F)(F)F)C(F)(F)F | 2.5 ± 0.17 |
| C1CCCCC1 [cyclohexane] + CCCCCCCCCCCCn1cc[n+](C)c1.O=S(=O)([N-]S(=O)(=O)C(F)(F)F)C(F)(F)F | 2.19 ± 0.15 |
| C1=CCCCC1 [cyclohexene] + CCCCCCCCCCCCn1cc[n+](C)c1.O=S(=O)([N-]S(=O)(=O)C(F)(F)F)C(F)(F)F | 1.68 ± 0.11 |
| C1CCCCCCC1 [cyclooctane] + CCCCCCCCCCCCn1cc[n+](C)c1.O=S(=O)([N-]S(=O)(=O)C(F)(F)F)C(F)(F)F | 2.85 ± 0.19 |

same assay, conditions: 368.15 K; 101.33 kPa; Liquid; Chromatography; x1 = 0

| Compound | activity coefficient |
| --- | --- |
| Cc1ccccc1C [1,2-dimethylbenzene] + CCCCCCCCCCCCn1cc[n+](C)c1.O=S(=O)([N-]S(=O)(=O)C(F)(F)F)C(F)(F)F | 1.01 ± 0.06 |
| Cc1cccc(C)c1 [1,3-dimethylbenzene] + CCCCCCCCCCCCn1cc[n+](C)c1.O=S(=O)([N-]S(=O)(=O)C(F)(F)F)C(F)(F)F | 1.09 ± 0.07 |
| Cc1ccc(C)cc1 [1,4-dimethylbenzene] + CCCCCCCCCCCCn1cc[n+](C)c1.O=S(=O)([N-]S(=O)(=O)C(F)(F)F)C(F)(F)F | 1.09 ± 0.07 |
| C1COCCO1 [1,4-dioxane] + CCCCCCCCCCCCn1cc[n+](C)c1.O=S(=O)([N-]S(=O)(=O)C(F)(F)F)C(F)(F)F | 0.597 ± 0.042 |
| C=CCCCCCCCC [1-decene] + CCCCCCCCCCCCn1cc[n+](C)c1.O=S(=O)([N-]S(=O)(=O)C(F)(F)F)C(F)(F)F | 4.6 ± 0.31 |
| C=CCCCCC [1-heptene] + CCCCCCCCCCCCn1cc[n+](C)c1.O=S(=O)([N-]S(=O)(=O)C(F)(F)F)C(F)(F)F | 2.85 ± 0.19 |
| C#CCCCCC [1-heptyne] + CCCCCCCCCCCCn1cc[n+](C)c1.O=S(=O)([N-]S(=O)(=O)C(F)(F)F)C(F)(F)F | 1.76 ± 0.12 |
| C#CCCCC [1-hexyne] + CCCCCCCCCCCCn1cc[n+](C)c1.O=S(=O)([N-]S(=O)(=O)C(F)(F)F)C(F)(F)F | 1.49 ± 0.1 |
| CCC[N+](=O)[O-] [1-nitropropane] + CCCCCCCCCCCCn1cc[n+](C)c1.O=S(=O)([N-]S(=O)(=O)C(F)(F)F)C(F)(F)F | 0.634 ± 0.044 |
| C#CCCCCCC [1-octyne] + CCCCCCCCCCCCn1cc[n+](C)c1.O=S(=O)([N-]S(=O)(=O)C(F)(F)F)C(F)(F)F | 2.06 ± 0.14 |
| C=CCCC [1-pentene] + CCCCCCCCCCCCn1cc[n+](C)c1.O=S(=O)([N-]S(=O)(=O)C(F)(F)F)C(F)(F)F | 2.08 ± 0.14 |
| C#CCCC [1-pentyne] + CCCCCCCCCCCCn1cc[n+](C)c1.O=S(=O)([N-]S(=O)(=O)C(F)(F)F)C(F)(F)F | 1.28 ± 0.08 |
| CC(C)CC(C)(C)C [2,2,4-trimethylpentane] + CCCCCCCCCCCCn1cc[n+](C)c1.O=S(=O)([N-]S(=O)(=O)C(F)(F)F)C(F)(F)F | 3.91 ± 0.27 |
| CCC(C)(C)C [2,2-dimethylbutane] + CCCCCCCCCCCCn1cc[n+](C)c1.O=S(=O)([N-]S(=O)(=O)C(F)(F)F)C(F)(F)F | 3.1 ± 0.21 |
| CCOC(C)(C)C [2-ethoxy-2-methylpropane] + CCCCCCCCCCCCn1cc[n+](C)c1.O=S(=O)([N-]S(=O)(=O)C(F)(F)F)C(F)(F)F | 1.88 ± 0.13 |
| CCC(C)(C)OC [2-methoxy-2-methylbutane] + CCCCCCCCCCCCn1cc[n+](C)c1.O=S(=O)([N-]S(=O)(=O)C(F)(F)F)C(F)(F)F | 1.4 ± 0.09 |

| Compound | activity coefficient |
| --- | --- |
| COC(C)(C)C [2-methoxy-2-methylpropane] + CCCCCCCCCCCCn1cc[n+](C)c1.O=S(=O)([N-]S(=O)(=O)C(F)(F)F)C(F)(F)F | 1.2 ± 0.08 |
| CC(C)CO [2-methyl-1-propanol] + CCCCCCCCCCCCn1cc[n+](C)c1.O=S(=O)([N-]S(=O)(=O)C(F)(F)F)C(F)(F)F | 1.13 ± 0.07 |
| CC(C)(C)O [2-methylpropan-2-ol] + CCCCCCCCCCCCn1cc[n+](C)c1.O=S(=O)([N-]S(=O)(=O)C(F)(F)F)C(F)(F)F | 0.933 ± 0.059 |
| CCC(C)CC [3-methylpentane] + CCCCCCCCCCCCn1cc[n+](C)c1.O=S(=O)([N-]S(=O)(=O)C(F)(F)F)C(F)(F)F | 3.04 ± 0.21 |
| C=C(C)c1ccccc1 [(1-methylethenyl)benzene] + CCCCCCCCCCCCn1cc[n+](C)c1.O=S(=O)([N-]S(=O)(=O)C(F)(F)F)C(F)(F)F | 1.05 ± 0.07 |
| CC(C)=O [acetone] + CCCCCCCCCCCCn1cc[n+](C)c1.O=S(=O)([N-]S(=O)(=O)C(F)(F)F)C(F)(F)F | 0.432 ± 0.035 |
| CC#N [acetonitrile] + CCCCCCCCCCCCn1cc[n+](C)c1.O=S(=O)([N-]S(=O)(=O)C(F)(F)F)C(F)(F)F | 0.545 ± 0.04 |
| c1ccccc1 [benzene] + CCCCCCCCCCCCn1cc[n+](C)c1.O=S(=O)([N-]S(=O)(=O)C(F)(F)F)C(F)(F)F | 0.694 ± 0.047 |
| CCCCO [butan-1-ol] + CCCCCCCCCCCCn1cc[n+](C)c1.O=S(=O)([N-]S(=O)(=O)C(F)(F)F)C(F)(F)F | 1.19 ± 0.08 |
| CCC(C)O (configuration not stated) [butan-2-ol] + CCCCCCCCCCCCn1cc[n+](C)c1.O=S(=O)([N-]S(=O)(=O)C(F)(F)F)C(F)(F)F | 1.05 ± 0.07 |
| CCCC=O [butanal] + CCCCCCCCCCCCn1cc[n+](C)c1.O=S(=O)([N-]S(=O)(=O)C(F)(F)F)C(F)(F)F | 0.575 ± 0.041 |
| C1CCCCCC1 [cycloheptane] + CCCCCCCCCCCCn1cc[n+](C)c1.O=S(=O)([N-]S(=O)(=O)C(F)(F)F)C(F)(F)F | 2.52 ± 0.17 |
| C1CCCCC1 [cyclohexane] + CCCCCCCCCCCCn1cc[n+](C)c1.O=S(=O)([N-]S(=O)(=O)C(F)(F)F)C(F)(F)F | 2.21 ± 0.15 |
| C1=CCCCC1 [cyclohexene] + CCCCCCCCCCCCn1cc[n+](C)c1.O=S(=O)([N-]S(=O)(=O)C(F)(F)F)C(F)(F)F | 1.71 ± 0.11 |
| C1CCCCCCC1 [cyclooctane] + CCCCCCCCCCCCn1cc[n+](C)c1.O=S(=O)([N-]S(=O)(=O)C(F)(F)F)C(F)(F)F | 2.86 ± 0.19 |
